The text below walks through data of patent publication US20220056037A1 (SPV THERAPEUTICS INC., priority 2018, published 2022).

Each structure is given as a SMILES string. Where two headings read alike, the source gives them in different places.

One test has as its target T1, CDK4-CYCLIND1 (Homo sapiens, UniProt P11802).
T1 construct: purchased Invitrogen
Description: Inhibition assay, microfluidic LabChip (Nanosyn). Format: biochemical. Conditions: Table 2; ATP 200 μM; read-out: CDK4 IC50. Here is the method:
(§1) The reaction was terminated by the addition of EDTA. The plates were analyzed using a Caliper LabChip 3000.
(§2) Additional inhibition assays were performed as described above.

A further test concerns the target T2, CDK6-CYCLIND3 (Homo sapiens, UniProt Q00534).
T2 construct: purchased Carna
Description: Inhibition assay, microfluidic LabChip (Nanosyn). Format: biochemical. Conditions: ATP 300 μM. Here is the method: as §1, §2

T2 sequence (Q00534 whole entry): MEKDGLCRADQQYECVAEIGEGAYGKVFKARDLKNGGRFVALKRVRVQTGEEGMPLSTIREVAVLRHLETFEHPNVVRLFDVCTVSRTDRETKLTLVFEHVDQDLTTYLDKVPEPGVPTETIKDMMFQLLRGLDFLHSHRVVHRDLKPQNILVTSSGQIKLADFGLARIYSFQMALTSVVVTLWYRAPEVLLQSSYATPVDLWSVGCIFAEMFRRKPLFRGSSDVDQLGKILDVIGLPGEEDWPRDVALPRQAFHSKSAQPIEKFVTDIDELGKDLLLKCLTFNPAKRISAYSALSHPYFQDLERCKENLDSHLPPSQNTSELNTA
T2 sequence (P30281 whole entry partner): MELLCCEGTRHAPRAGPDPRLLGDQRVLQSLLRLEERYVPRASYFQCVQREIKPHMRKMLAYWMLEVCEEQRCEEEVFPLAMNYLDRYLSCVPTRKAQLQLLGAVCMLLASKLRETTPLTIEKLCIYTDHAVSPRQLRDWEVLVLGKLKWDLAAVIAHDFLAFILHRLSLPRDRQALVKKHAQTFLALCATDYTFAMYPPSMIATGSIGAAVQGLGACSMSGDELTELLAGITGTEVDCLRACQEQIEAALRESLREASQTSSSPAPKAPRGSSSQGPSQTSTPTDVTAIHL
T1 sequence (P11802 whole entry): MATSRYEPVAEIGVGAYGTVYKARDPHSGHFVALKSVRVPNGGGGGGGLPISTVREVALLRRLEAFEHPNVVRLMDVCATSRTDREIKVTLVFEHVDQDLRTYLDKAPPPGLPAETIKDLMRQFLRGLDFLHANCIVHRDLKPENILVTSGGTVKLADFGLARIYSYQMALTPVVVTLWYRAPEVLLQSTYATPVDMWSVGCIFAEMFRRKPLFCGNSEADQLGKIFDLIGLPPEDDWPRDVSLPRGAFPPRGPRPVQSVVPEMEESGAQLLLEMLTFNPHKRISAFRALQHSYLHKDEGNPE
T1 sequence (P24385 whole entry partner): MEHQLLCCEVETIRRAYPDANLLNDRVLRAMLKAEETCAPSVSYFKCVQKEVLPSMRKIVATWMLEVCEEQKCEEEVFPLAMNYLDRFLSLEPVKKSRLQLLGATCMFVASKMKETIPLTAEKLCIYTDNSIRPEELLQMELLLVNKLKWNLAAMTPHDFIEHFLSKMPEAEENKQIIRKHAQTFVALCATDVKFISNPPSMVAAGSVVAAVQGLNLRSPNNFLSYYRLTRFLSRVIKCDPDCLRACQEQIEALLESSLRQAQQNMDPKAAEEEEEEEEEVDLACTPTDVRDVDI

With `CN1CCN(c2ccc(Nc3ncc4c(F)c(C(=O)N(C)C)n(C5CCCC5)c4n3)cn2)CC1` [Compound A28, 7-cyclopentyl-5-fluoro-N,N-dimethyl-2-((6-(4-methylpiperazin-1-yl)pyridin-3-yl)amino)-7H-pyrrolo[2,3-d]pyrimidine-6-carboxamide], the IC50 on CDK4-CYCLIND1 worked out at 26.6 nM; at CDK6-CYCLIND3 (Table 2, read-out: CDK6 IC50) it was 81.9 nM.
The matching figures for `CN(C)C(=O)c1c(F)c2cnc(Nc3ccc(N4CCOCC4)c(F)c3)nc2n1C1CCCC1` [Compound A20, 7-cyclopentyl-5-fluoro-2-((3-fluoro-4-morpholinophenyl)amino)-N,N-dimethyl-7H-pyrrolo[2,3-d]pyrimidine-6-carboxamide]: 33 nM and 74.6 nM.
The matching figures for `CN(C)CCOc1ccc(Nc2ncc3cc(C(=O)N(C)C)n(C4CCCC4)c3n2)nc1` [Compound A4, 7-cyclopentyl-2-((5-(2-(dimethylamino)ethoxy)pyridin-2-yl)amino)-N,N-dimethyl-7H-pyrrolo[2,3-d]pyrimidine-6-carboxamide]: 18.9 nM and 34.9 nM.
For `CN(C)C(=O)c1cc2cnc(Nc3ccc(C4=CCNCC4)cn3)nc2n1C12CC(C1)C2` [Compound A13, 7-(bicyclo[1.1.1]pentan-1-yl)-N,N-dimethyl-2-((1′,2′,3′,6′-tetrahydro-[3,4′-bipyridin]-6-yl)amino)-7H-pyrrolo[2,3-d]pyrimidine-6-carboxamide] the same measures were 14.7 nM and 8.29 nM.
In the case of `CN1CCN(c2ccc(Nc3ncc4cc(C(=O)N(C)C)n(C56CC(C5)C6)c4n3)cc2F)CC1` [Compound A30, 7-(bicyclo[1.1.1]pentan-1-yl)-2-((3-fluoro-4-(4-methylpiperazin-1-yl)phenyl)amino)-N,N-dimethyl-7H-pyrrolo[2,3-d]pyrimidine-6-carboxamide], the IC50 on CDK4-CYCLIND1 was found to be 10.7 nM; at CDK6-CYCLIND3 (Table 2, read-out: CDK6 IC50), 31.7 nM.
On to `CN1CCN(c2ccc(Nc3ncc4cc(C(=O)N(C)C)n(C56CC(C5)C6)c4n3)nc2)CC1` [Compound A38, 7-(bicyclo[1.1.1]pentan-1-yl)-N,N-dimethyl-2-((5-(4-methylpiperazin-1-yl)pyridin-2-yl)amino)-7H-pyrrolo[2,3-d]pyrimidine-6-carboxamide], for which the IC50 came to 15.4 nM on CDK4-CYCLIND1 and 23.5 nM on CDK6-CYCLIND3 (Table 2, read-out: CDK6 IC50).
Consider `CN(C)C(=O)c1cc2cnc(Nc3ccc(N4CCNCC4)c(F)c3)nc2n1C12CC(C1)C2` [Compound A17, 7-(bicyclo[1.1.1]pentan-1-yl)-2-((3-fluoro-4-(piperazin-1-yl)phenyl)amino)-N,N-dimethyl-7H-pyrrolo[2,3-d]pyrimidine-6-carboxamide], for which the IC50 on CDK4-CYCLIND1 was 3.04 nM; at CDK6-CYCLIND3 (Table 2, read-out: CDK6 IC50), 8.04 nM.
The matching figures for `CN(C)C(=O)c1cc2cnc(Nc3ccc(OCCN4CCCCC4)cn3)nc2n1C1CCCC1` [Compound A6, 7-cyclopentyl-N,N-dimethyl-2-((5-(2-(piperidin-1-yl)ethoxy)pyridin-2-yl)amino)-7H-pyrrolo[2,3-d]pyrimidine-6-carboxamide]: 15.2 nM and 36.4 nM.
As to `COc1cc(Nc2ncc3c(F)c(C(=O)N(C)C)n(C4CCCC4)c3n2)ccc1N1CCN(C(C)C)CC1` [Compound A35, 7-cyclopentyl-5-fluoro-2-((4-(4-isopropylpiperazin-1-yl)-3-methoxyphenyl)amino)-N,N-dimethyl-7H-pyrrolo[2,3-d]pyrimidine-6-carboxamide], the IC50 was 43.8 nM on CDK4-CYCLIND1 and 217 nM on CDK6-CYCLIND3 (Table 2, read-out: CDK6 IC50).
In the case of `CN(C)C(=O)c1cc2cnc(Nc3ccc(C(=O)N4CC[C@H](N(C)C)C4)cc3)nc2n1C12CC(C1)C2` [Compound A44, (S)-7-(bicyclo[1.1.1]pentan-1-yl)-2-((4-(3-(dimethylamino)pyrrolidine-1-carbonyl)phenyl)amino)-N,N-dimethyl-7H-pyrrolo[2,3-d]pyrimidine-6-carboxamide], the IC50 at CDK4-CYCLIND1 was 2.45 nM; at CDK6-CYCLIND3 (Table 2, read-out: CDK6 IC50) it was 10.1 nM.
For `CN(C)C(=O)c1c(F)c2cnc(Nc3ccc(N4CCN5CCC4CC5)cn3)nc2n1C1CCCC1` [Compound A10, 2-((5-(1,4-diazabicyclo[3.2.2]nonan-4-yl)pyridin-2-yl)amino)-7-cyclopentyl-5-fluoro-N,N-dimethyl-7H-pyrrolo[2,3-d]pyrimidine-6-carboxamide] the same measures were 30.4 nM and 50 nM.
For `CN(C)C(=O)c1c(F)c2cnc(Nc3ccc(OCCN4CCCC4)nc3)nc2n1C1CCCC1` [Compound A26, 7-cyclopentyl-5-fluoro-N,N-dimethyl-2-((6-(2-(pyrrolidin-1-yl)ethoxy)pyridin-3-yl)amino)-7H-pyrrolo[2,3-d]pyrimidine-6-carboxamide] the same measures were 39.3 nM and 119 nM.
For `CN(C)C(=O)c1c(F)c2cnc(Nc3ccc(N4CCNCC4)cn3)nc2n1C1CCCC1` [Compound A1, 7-cyclopentyl-5-fluoro-N,N-dimethyl-2-((5-(piperazin-1-yl)pyridin-2-yl)amino)-7H-pyrrolo[2,3-d]pyrimidine-6-carboxamide] the same measures were 38.7 nM and 54.3 nM.
On to `CN(C)C(=O)c1cc2cnc(Nc3ccc(N4CCOCC4)c(F)c3)nc2n1C12CC(C1)C2` [Compound A42, 7-(bicyclo[1.1.1]pentan-1-yl)-2-((3-fluoro-4-morpholinophenyl)amino)-N,N-dimethyl-7H-pyrrolo[2,3-d]pyrimidine-6-carboxamide], for which the IC50 at CDK4-CYCLIND1 worked out at 15 nM; at CDK6-CYCLIND3 (Table 2, read-out: CDK6 IC50), 43.4 nM.
The matching figures for `Cc1cc(Nc2ncc3cc(C(=O)N(C)C)n(C45CC(C4)C5)c3n2)ccc1N1CCN(C(C)C)CC1` [Compound A31, 7-(bicyclo[1.1.1]pentan-1-yl)-2-((4-(4-isopropylpiperazin-1-yl)-3-methylphenyl)amino)-N,N-dimethyl-7H-pyrrolo[2,3-d]pyrimidine-6-carboxamide]: 9 nM and 33.7 nM.
For `CN1CCN(c2ccc(Nc3ncc4cc(C(=O)N(C)C)n(C56CC(C5)C6)c4n3)cc2F)CC1` [Compound A40, 7-(bicyclo[1.1.1]pentan-1-yl)-2-((3-fluoro-4-(4-methylpiperazin-1-yl)phenyl)amino)-N,N-dimethyl-7H-pyrrolo[2,3-d]pyrimidine-6-carboxamide] the same measures were 5.16 nM and 17.3 nM.
The matching figures for `CC(C)N1CC=C(c2ccc(Nc3ncc4cc(C(=O)N(C)C)n(C56CC(C5)C6)c4n3)nc2)CC1` [Compound A43, 7-(bicyclo[1.1.1]pentan-1-yl)-2-((1′-isopropyl-1′,2′,3′,6′-tetrahydro-[3,4′-bipyridin]-6-yl)amino)-N,N-dimethyl-7H-pyrrolo[2,3-d]pyrimidine-6-carboxamide]: 35.6 nM and 32.9 nM.
For the compound `CN(C)C(=O)c1cc2cnc(Nc3ccc(N4CC5(CNC5)C4)nc3)nc2n1C12CC(C1)C2` [Compound A46, 2-((6-(2,6-diazaspiro[3.3]heptan-2-yl)pyridin-3-yl)amino)-7-(bicyclo[1.1.1]pentan-1-yl)-N,N-dimethyl-7H-pyrrolo[2,3-d]pyrimidine-6-carboxamide], the IC50 came to 12.6 nM at CDK4-CYCLIND1 and 28.2 nM on CDK6-CYCLIND3 (Table 2, read-out: CDK6 IC50).
Regarding `CN(C)C(=O)c1c(F)c2cnc(Nc3ccc(C4=CCNCC4)cn3)nc2n1C1CCCC1` [Compound A22, 7-cyclopentyl-5-fluoro-N,N-dimethyl-2-((1′,2′,3′,6′-tetrahydro-[3,4′-bipyridin]-6-yl)amino)-7H-pyrrolo[2,3-d]pyrimidine-6-carboxamide], the IC50 was 41.7 nM on CDK4-CYCLIND1 and 82 nM at CDK6-CYCLIND3 (Table 2, read-out: CDK6 IC50).
For `CN(C)C(=O)c1cc2cnc(Nc3ccc(N4CCC(N5CCOCC5)CC4)cc3)nc2n1C12CC(C1)C2` [Compound A45, 7-(bicyclo[1.1.1]pentan-1-yl)-N,N-dimethyl-2-((4-(4-morpholinopiperidin-1-yl)phenyl)amino)-7H-pyrrolo[2,3-d]pyrimidine-6-carboxamide] the same measures were 29.3 nM and 73.3 nM.
The matching figures for `CC(C)N1CCN(c2ccc(Nc3ncc4cc(C(=O)N(C)C)n(C5CCCC5)c4n3)cc2F)CC1` [Compound A11, 7-cyclopentyl-2-((3-fluoro-4-(4-isopropylpiperazin-1-yl)phenyl)amino)-N,N-dimethyl-7H-pyrrolo[2,3-d]pyrimidine-6-carboxamide]: 3.88 nM and 12 nM.
The matching figures for `CN(C)C(=O)c1c(F)c2cnc(Nc3ccc(OCCN4CCCCC4)nc3)nc2n1C1CCCC1` [Compound A27, 7-cyclopentyl-5-fluoro-N,N-dimethyl-2-((6-(2-(piperidin-1-yl)ethoxy)pyridin-3-yl)amino)-7H-pyrrolo[2,3-d]pyrimidine-6-carboxamide]: 39.6 nM and 116 nM.
As for `Cc1cc(Nc2ncc3c(F)c(C(=O)N(C)C)n(C4CCCC4)c3n2)ccc1N1CCN(C(C)C)CC1` [Compound A34, 7-cyclopentyl-5-fluoro-2-((4-(4-isopropylpiperazin-1-yl)-3-methylphenyl)amino)-N,N-dimethyl-7H-pyrrolo[2,3-d]pyrimidine-6-carboxamide], the IC50 was found to be 26.2 nM at CDK4-CYCLIND1 and 103 nM at CDK6-CYCLIND3 (Table 2, read-out: CDK6 IC50).
At CDK6-CYCLIND3 (CDK6 IC50, Table 2), `CN1CCN(c2ccc(Nc3ncc4cc(C(=O)N(C)C)n(C56CC(C5)C6)c4n3)cc2)CC1` [Compound A14, 7-(bicyclo[1.1.1]pentan-1-yl)-N,N-dimethyl-2-((4-(4-methylpiperazin-1-yl)phenyl)amino)-7H-pyrrolo[2,3-d]pyrimidine-6-carboxamide] had an IC50 of 7.08 nM.
On to `CC(C)N1CCN(c2ccc(Nc3ncc4cc(C(=O)N(C)C)n(C56CC(C5)C6)c4n3)cc2)CC1` [Compound A37, 7-(bicyclo[1.1.1]pentan-1-yl)-2-((4-(4-isopropylpiperazin-1-yl)phenyl)amino)-N,N-dimethyl-7H-pyrrolo[2,3-d]pyrimidine-6-carboxamide], for which, at CDK4-CYCLIND1, the IC50 was 52000 nM.
